How the values were obtained:
[1] = system: short-term antigen-specific T cell lines generated from PBMCs; assay: Interferon-γ ELISpot assay on short-term antigen-specific T cell lines; format: cell-based, human; details: for rates of immunoactivation in PBMC samples, CD8 T cell responses and/or numbers of HPV16 positive cell lines presenting the peptide as HLA-complexes: comparison among the peptides in Table 1
[2] = system: peptide-specific T cell cultures; assay: T cell phenotyping and intracellular cytokine staining (IFN-gamma, TNF-alpha); format: cell-based, human; parameters: key: +: cytokine: Immunogenicity of the peptide shown by intracellular cytokine staining (IFN-gamma, TNF-alpha); +*: *highlights data from published resources.; *highlights data from published resources
Protocol: To characterize and quantify the responsive cells upon peptide stimulation, the peptide-specific T cell cultures with positive ELISpot results were further analyzed with T cell phenotyping and intracellular cytokine staining (ICS) assessed by flow cytometry.
The cells of the respective continued short-term T cell culture as well as the DMSO-stimulated and an unresponsive T cell line were harvested into 2 mL reaction tubes and centrifuged at 400×g for 10 min. The supernatant was discarded and the pellet of the unresponsive T cell line was resuspended in 100 μL ELISpot medium and used as unstimulated and unstained control. The pellets of the responsive and the DMSO-stimulated T cell lines were resuspended in 200 μL ELISpot medium and split equally into two wells of a V-bottom 96-well plate. One well of the responsive T cell lines was re-stimulated with 10 μg/mL of its specific peptide while the other well was mock stimulated with 0.1% (v/v) DMSO. As positive control, one well of the DMSO-stimulated T cell line was activated by treatment with 20 ng/ml Phorbol 12-myristate 13-acetate and 1 μM lonomycin. Then, 1:10 diluted GolgiStop (containing monensin) and 1:15 diluted GolgiPlug (containing brefeldin A) were added to all wells to inhibit intracellular transport processes. Monensin inhibits the trans-Golgi transport, while brefeldin A inhibits transport between the ER and the Golgi (Chardin and McCormick, 1999; Mollenhauer et al., 1990). The stimulated cells were incubated for 5 h at standard culture conditions.
After incubation, the cells were resuspended, centrifuged at 400×g for 5 min and the supernatant was discarded. Then, the cells were resuspended in 50 μL cold staining buffer (unstained) or 50 μL cold staining buffer containing the phenotyping antibodies against CD3, CD4, CD8 and the LIVE/DEAD™ Fixable Near-IR Dead Cell Stain (unstimulated and stimulated) and incubated at 4° C. for 30 min. After the surface staining, the cells were washed twice with 200 μL staining buffer and centrifugation at 1400 rpm, followed by fixation with 1% paraformaldehyde (PFA) solution for 15 min at 4° C. All following centrifugation steps were carried out at 1400 rpm for 5 min. After fixation, the cells were again washed twice with 200 μL cold staining buffer and were then resuspended in 100 μL 1× perm/wash buffer diluted in PBS (provided is 10×) for 15 min at 4° C. for cell membrane permeabilization. Subsequently, the plate was centrifuged and the supernatant was discarded. The cells were resuspended in 50 μL perm/wash buffer diluted in PBS (unstained) or 50 μL perm/wash buffer containing the intracellular cytokine antibodies against IFNγ, TNFα and granzyme B (unstimulated and stimulated) for 30 min at 4° C. After intracellular cytokine staining, the cells were washed twice with 200 μL 1× perm/wash buffer. Then 100 μL fix/perm solution (provided in the BD Cytofix/Cytoperm kit) were added per well. After 20 min of incubation at 4° C., the cells of each well were washed twice with 200 μL 1× perm/wash buffer before being resuspended in 100 μL staining buffer and stored at 4° C. overnight.
OneComp eBeads™ (eBeads) and ArC™ Amine Reactive Compensation beads (ArC beads) were stained as compensation controls. For each antibody, 50 μL of the eBeads suspension were stained with the same dilution as used for staining the cells. The ArC beads were stained with 1 μL LIVE/DEAD™ Fixable Near-IR Dead Cell Stain stock solution in 50 μL staining buffer. The beads were incubated at 4° C. for 30 min and were then washed two times with 1 mL staining buffer and centrifugation at 400×g. Finally, the stained beads were resuspended in 400 μL staining buffer, one drop of ArC™ negative beads was added to the labelled ArC beads, and all beads were stored at 4° C. overnight.
On the next day, the samples and the single stained compensation controls were acquired at a BD FACS Canto™ II analyzer using the BD FACS Diva Software Version 6. […]

99 (RPRKLPQLCTE; Human papillomavirus 16) [compound 99]
ELISpot: Immungenicity of the peptide shown by IFN-gamma ELISPOT analysis ([1]; HLA restriction B07): +
cytokine: Immunogenicity of the peptide shown by intracellular cytokine staining (IFN-gamma, TNF-alpha) ([2]; HLA restriction B07): +

89 (HYNIVTFCC; Human papillomavirus 16) [compound 89]
ELISpot: Immungenicity of the peptide shown by IFN-gamma ELISPOT analysis ([1]; HLA restriction A24): +
cytokine: Immunogenicity of the peptide shown by intracellular cytokine staining (IFN-gamma, TNF-alpha) ([2]; HLA restriction A24): +

65 (VCDKCLKFYSK; Human papillomavirus 16) [compound 65]
ELISpot: Immungenicity of the peptide shown by IFN-gamma ELISPOT analysis ([1]; HLA restriction A11): +
cytokine: Immunogenicity of the peptide shown by intracellular cytokine staining (IFN-gamma, TNF-alpha) ([2]; HLA restriction A11): +

109 (LQPETTDLY; Human papillomavirus 16) [compound 109]
rates of immunoactivation in PBMC samples, CD8 T cell responses and/or numbers of HPV16 positive cell lines presenting the peptide as HLA-complexes [1]: highest rates of immunoactivation in PBMC samples, to induce the strongest CD8 T cell responses, and/or shown to be presented as HLA-complexes by the highest numbers of HPV16 positive cell lines
cytokine: Immunogenicity of the peptide shown by intracellular cytokine staining (IFN-gamma, TNF-alpha) ([2]; HLA restriction B15): +

24 (DLLMGTLGIVC; Human papillomavirus 16) [compound 24]
ELISpot: Immungenicity of the peptide shown by IFN-gamma ELISPOT analysis ([1]; HLA restriction A02): +
cytokine: Immunogenicity of the peptide shown by intracellular cytokine staining (IFN-gamma, TNF-alpha) ([2]; HLA restriction A02): +

117 (YRHYCYSVY; Human papillomavirus 16) [compound 117]
ELISpot: Immungenicity of the peptide shown by IFN-gamma ELISPOT analysis ([1]; HLA restriction B15): +
cytokine: Immunogenicity of the peptide shown by intracellular cytokine staining (IFN-gamma, TNF-alpha) ([2]; HLA restriction B15): +

63 (AVCDKCLKFY; Human papillomavirus 16) [compound 63]
ELISpot: Immungenicity of the peptide shown by IFN-gamma ELISPOT analysis ([1]; HLA restriction A03): +
ELISpot: Immungenicity of the peptide shown by IFN-gamma ELISPOT analysis ([1]; HLA restriction B15): +
cytokine: Immunogenicity of the peptide shown by intracellular cytokine staining (IFN-gamma, TNF-alpha) ([2]; HLA restriction A03): +
cytokine: Immunogenicity of the peptide shown by intracellular cytokine staining (IFN-gamma, TNF-alpha) ([2]; HLA restriction A11): +
cytokine: Immunogenicity of the peptide shown by intracellular cytokine staining (IFN-gamma, TNF-alpha) ([2]; HLA restriction B15): +

5 (EYRYYCYSLY; Human papillomavirus 16) [compound 5]
ELISpot: Immungenicity of the peptide shown by IFN-gamma ELISPOT analysis ([1]; HLA restriction A01): +
cytokine: Immunogenicity of the peptide shown by intracellular cytokine staining (IFN-gamma, TNF-alpha) ([2]; HLA restriction A01): +

74 (DLLIRCINCQK; Human papillomavirus 16) [compound 74]
ELISpot: Immungenicity of the peptide shown by IFN-gamma ELISPOT analysis ([1]; HLA restriction A11): +
cytokine: Immunogenicity of the peptide shown by intracellular cytokine staining (IFN-gamma, TNF-alpha) ([2]; HLA restriction A11): +

101 (NIRGRWTGRCM; Human papillomavirus 16) [compound 101]
ELISpot: Immungenicity of the peptide shown by IFN-gamma ELISPOT analysis ([1]; HLA restriction B07): +
ELISpot: Immungenicity of the peptide shown by IFN-gamma ELISPOT analysis ([1]; HLA restriction B15): +
cytokine: Immunogenicity of the peptide shown by intracellular cytokine staining (IFN-gamma, TNF-alpha) ([2]; HLA restriction B07): +
cytokine: Immunogenicity of the peptide shown by intracellular cytokine staining (IFN-gamma, TNF-alpha) ([2]; HLA restriction B15): +

62 (NPYAVCDKCLK; Human papillomavirus 16) [compound 62]
ELISpot: Immungenicity of the peptide shown by IFN-gamma ELISPOT analysis ([1]; HLA restriction A11): +
cytokine: Immunogenicity of the peptide shown by intracellular cytokine staining (IFN-gamma, TNF-alpha) ([2]; HLA restriction A11): +

6 (DLQPETTDLY; Human papillomavirus 16) [compound 6]
ELISpot: Immungenicity of the peptide shown by IFN-gamma ELISPOT analysis ([1]; HLA restriction A01): +
cytokine: Immunogenicity of the peptide shown by intracellular cytokine staining (IFN-gamma, TNF-alpha) ([2]; HLA restriction A01): +

137 (RHYCYSLY; Human papillomavirus 16) [compound 137]
ELISpot: Immungenicity of the peptide shown by IFN-gamma ELISPOT analysis ([1]; HLA restriction A03): +
cytokine: Immunogenicity of the peptide shown by intracellular cytokine staining (IFN-gamma, TNF-alpha) ([2]; HLA restriction A03): +

107 (KQQLLRREVY; Human papillomavirus 16) [compound 107]
ELISpot: Immungenicity of the peptide shown by IFN-gamma ELISPOT analysis ([1]; HLA restriction B15): +
rates of immunoactivation in PBMC samples, CD8 T cell responses and/or numbers of HPV16 positive cell lines presenting the peptide as HLA-complexes [1]: highest rates of immunoactivation in PBMC samples, to induce the strongest CD8 T cell responses, and/or shown to be presented as HLA-complexes by the highest numbers of HPV16 positive cell lines
cytokine: Immunogenicity of the peptide shown by intracellular cytokine staining (IFN-gamma, TNF-alpha) ([2]; HLA restriction B15): +

88 (DRAHYNIVTF; Human papillomavirus 16) [compound 88]
ELISpot: Immungenicity of the peptide shown by IFN-gamma ELISPOT analysis ([1]; HLA restriction A24): +
cytokine: Immunogenicity of the peptide shown by intracellular cytokine staining (IFN-gamma, TNF-alpha) ([2]; HLA restriction A24): +
